Reference: the supplement of paper PMC8671470

system: Mono-Mac-6; assay: cell viability (% survival relative to DMSO control, bortezomib = 0%); higher = less cytotoxic; conditions: 1000 nM; 72 h
In short: (§1)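 Percent survival is reported as the mean of duplicate wells. Cells from 10 AML and 5 CML lines were plated in 384-well plates containing compounds at 1, 10, 100, 1000 or 10000 nM and kept for 72 h at 37 °C in 5% CO2. Readout used CellTiter-Glo luminescence, scaled so that vehicle equals 100% and a 10 µM positive control equals 0%.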

Structure (SMILES) | cell viability [%]
COC(=O)c1cc2c(C(F)(F)F)cc(-c3ccccc3)cc2n1O [NHI-2] | 89.5
CCCCCCCC/C=C\CCCCCCCC(=O)Nc1ccccc1 [Octadec-9-Enoic Acid Phenylamide] | 99.5
CC[C@H](C)[C@H](N)C(=O)N1CCSC1 [P32/98] | 103
CC(=O)Nc1nc(C)c(-c2ccc(Cl)c(S(=O)(=O)NCCO)c2)s1 [PIK93] | 52.4
OC[C@H]1O[C@@H](n2cnc3c2N=CNC[C@H]3O)C[C@@H]1O [Pentostatin] | 91.9
CC(C)CC(=O)N[C@H](C(=O)N[C@H](C(=O)N[C@@H](CC(C)C)[C@@H](O)CC(=O)N[C@@H](C)C(=O)N[C@@H](CC(C)C)[C@@H](O)CC(=O)O)C(C)C)C(C)C [Pepstatin A] | 100
Cc1cccc(Nc2cc(Cl)nc(SCC(=O)O)n2)c1C [Pirinixic acid] | 99.2
C[C@]12C=CC(=O)C=C1CC[C@@H]1[C@@H]2[C@@H](O)C[C@@]2(C)[C@H]1CC[C@]2(O)C(=O)CO [Prednisolone] | 157
C=CCN(C)CCCCCCOc1ccc(C(=O)c2ccc(Br)cc2)c(F)c1.O=C(O)/C=C/C(=O)O [Ro 48-8071 fumarate] | 96

same assay, conditions: 10000 nM; 72 h

Structure (SMILES) | cell viability [%]
CN(Cc1cnc2nc(N)nc(N)c2n1)c1ccc(C(=O)N[C@@H](CCC(=O)O)C(=O)O)cc1 [Methotrexate] | 7.86
COC(=O)c1cc2c(C(F)(F)F)cc(-c3ccccc3)cc2n1O [NHI-2] | 103
CCCCCCCC/C=C\CCCCCCCC(=O)Nc1ccccc1 [Octadec-9-Enoic Acid Phenylamide] | 101
CC[C@H](C)[C@H](N)C(=O)N1CCSC1 [P32/98] | 101
CC(=O)Nc1nc(C)c(-c2ccc(Cl)c(S(=O)(=O)NCCO)c2)s1 [PIK93] | 17.6
OC[C@H]1O[C@@H](n2cnc3c2N=CNC[C@H]3O)C[C@@H]1O [Pentostatin] | 99.3
CC(C)CC(=O)N[C@H](C(=O)N[C@H](C(=O)N[C@@H](CC(C)C)[C@@H](O)CC(=O)N[C@@H](C)C(=O)N[C@@H](CC(C)C)[C@@H](O)CC(=O)O)C(C)C)C(C)C [Pepstatin A] | 101
Cc1cccc(Nc2cc(Cl)nc(SCC(=O)O)n2)c1C [Pirinixic acid] | 91.4
C[C@]12C=CC(=O)C=C1CC[C@@H]1[C@@H]2[C@@H](O)C[C@@]2(C)[C@H]1CC[C@]2(O)C(=O)CO [Prednisolone] | 140
C=CCN(C)CCCCCCOc1ccc(C(=O)c2ccc(Br)cc2)c(F)c1.O=C(O)/C=C/C(=O)O [Ro 48-8071 fumarate] | 63.8

system: SHI-1; assay: as above; conditions: 1 nM; 72 h
In short: as §1

Structure (SMILES) | cell viability [%]
CN(Cc1cnc2nc(N)nc(N)c2n1)c1ccc(C(=O)N[C@@H](CCC(=O)O)C(=O)O)cc1 [Methotrexate] | 83.7
COC(=O)c1cc2c(C(F)(F)F)cc(-c3ccccc3)cc2n1O [NHI-2] | 96.6
CCCCCCCC/C=C\CCCCCCCC(=O)Nc1ccccc1 [Octadec-9-Enoic Acid Phenylamide] | 109
CC[C@H](C)[C@H](N)C(=O)N1CCSC1 [P32/98] | 111
CC(=O)Nc1nc(C)c(-c2ccc(Cl)c(S(=O)(=O)NCCO)c2)s1 [PIK93] | 104
OC[C@H]1O[C@@H](n2cnc3c2N=CNC[C@H]3O)C[C@@H]1O [Pentostatin] | 93.9
CC(C)CC(=O)N[C@H](C(=O)N[C@H](C(=O)N[C@@H](CC(C)C)[C@@H](O)CC(=O)N[C@@H](C)C(=O)N[C@@H](CC(C)C)[C@@H](O)CC(=O)O)C(C)C)C(C)C [Pepstatin A] | 93
Cc1cccc(Nc2cc(Cl)nc(SCC(=O)O)n2)c1C [Pirinixic acid] | 98.5
C[C@]12C=CC(=O)C=C1CC[C@@H]1[C@@H]2[C@@H](O)C[C@@]2(C)[C@H]1CC[C@]2(O)C(=O)CO [Prednisolone] | 97.7
C=CCN(C)CCCCCCOc1ccc(C(=O)c2ccc(Br)cc2)c(F)c1.O=C(O)/C=C/C(=O)O [Ro 48-8071 fumarate] | 103

same assay, conditions: 10 nM; 72 h

Structure (SMILES) | cell viability [%]
CN(Cc1cnc2nc(N)nc(N)c2n1)c1ccc(C(=O)N[C@@H](CCC(=O)O)C(=O)O)cc1 [Methotrexate] | 90.7
COC(=O)c1cc2c(C(F)(F)F)cc(-c3ccccc3)cc2n1O [NHI-2] | 104
CCCCCCCC/C=C\CCCCCCCC(=O)Nc1ccccc1 [Octadec-9-Enoic Acid Phenylamide] | 94.4
CC[C@H](C)[C@H](N)C(=O)N1CCSC1 [P32/98] | 99.9
CC(=O)Nc1nc(C)c(-c2ccc(Cl)c(S(=O)(=O)NCCO)c2)s1 [PIK93] | 94.6
OC[C@H]1O[C@@H](n2cnc3c2N=CNC[C@H]3O)C[C@@H]1O [Pentostatin] | 100
CC(C)CC(=O)N[C@H](C(=O)N[C@H](C(=O)N[C@@H](CC(C)C)[C@@H](O)CC(=O)N[C@@H](C)C(=O)N[C@@H](CC(C)C)[C@@H](O)CC(=O)O)C(C)C)C(C)C [Pepstatin A] | 87.5
Cc1cccc(Nc2cc(Cl)nc(SCC(=O)O)n2)c1C [Pirinixic acid] | 97
C[C@]12C=CC(=O)C=C1CC[C@@H]1[C@@H]2[C@@H](O)C[C@@]2(C)[C@H]1CC[C@]2(O)C(=O)CO [Prednisolone] | 95.7
C=CCN(C)CCCCCCOc1ccc(C(=O)c2ccc(Br)cc2)c(F)c1.O=C(O)/C=C/C(=O)O [Ro 48-8071 fumarate] | 100

same assay, conditions: 100 nM; 72 h

Structure (SMILES) | cell viability [%]
CN(Cc1cnc2nc(N)nc(N)c2n1)c1ccc(C(=O)N[C@@H](CCC(=O)O)C(=O)O)cc1 [Methotrexate] | 44.4
COC(=O)c1cc2c(C(F)(F)F)cc(-c3ccccc3)cc2n1O [NHI-2] | 97.3
CCCCCCCC/C=C\CCCCCCCC(=O)Nc1ccccc1 [Octadec-9-Enoic Acid Phenylamide] | 103
CC[C@H](C)[C@H](N)C(=O)N1CCSC1 [P32/98] | 103
CC(=O)Nc1nc(C)c(-c2ccc(Cl)c(S(=O)(=O)NCCO)c2)s1 [PIK93] | 97.3
OC[C@H]1O[C@@H](n2cnc3c2N=CNC[C@H]3O)C[C@@H]1O [Pentostatin] | 94.5
CC(C)CC(=O)N[C@H](C(=O)N[C@H](C(=O)N[C@@H](CC(C)C)[C@@H](O)CC(=O)N[C@@H](C)C(=O)N[C@@H](CC(C)C)[C@@H](O)CC(=O)O)C(C)C)C(C)C [Pepstatin A] | 111
Cc1cccc(Nc2cc(Cl)nc(SCC(=O)O)n2)c1C [Pirinixic acid] | 91.8
C[C@]12C=CC(=O)C=C1CC[C@@H]1[C@@H]2[C@@H](O)C[C@@]2(C)[C@H]1CC[C@]2(O)C(=O)CO [Prednisolone] | 97.9
C=CCN(C)CCCCCCOc1ccc(C(=O)c2ccc(Br)cc2)c(F)c1.O=C(O)/C=C/C(=O)O [Ro 48-8071 fumarate] | 101

same assay, conditions: 1000 nM; 72 h

Structure (SMILES) | cell viability [%]
CN(Cc1cnc2nc(N)nc(N)c2n1)c1ccc(C(=O)N[C@@H](CCC(=O)O)C(=O)O)cc1 [Methotrexate] | 35.8
COC(=O)c1cc2c(C(F)(F)F)cc(-c3ccccc3)cc2n1O [NHI-2] | 93.6
CCCCCCCC/C=C\CCCCCCCC(=O)Nc1ccccc1 [Octadec-9-Enoic Acid Phenylamide] | 100
CC[C@H](C)[C@H](N)C(=O)N1CCSC1 [P32/98] | 97.1
CC(=O)Nc1nc(C)c(-c2ccc(Cl)c(S(=O)(=O)NCCO)c2)s1 [PIK93] | 57.6
OC[C@H]1O[C@@H](n2cnc3c2N=CNC[C@H]3O)C[C@@H]1O [Pentostatin] | 100
CC(C)CC(=O)N[C@H](C(=O)N[C@H](C(=O)N[C@@H](CC(C)C)[C@@H](O)CC(=O)N[C@@H](C)C(=O)N[C@@H](CC(C)C)[C@@H](O)CC(=O)O)C(C)C)C(C)C [Pepstatin A] | 105
Cc1cccc(Nc2cc(Cl)nc(SCC(=O)O)n2)c1C [Pirinixic acid] | 94.4
C[C@]12C=CC(=O)C=C1CC[C@@H]1[C@@H]2[C@@H](O)C[C@@]2(C)[C@H]1CC[C@]2(O)C(=O)CO [Prednisolone] | 67.6
C=CCN(C)CCCCCCOc1ccc(C(=O)c2ccc(Br)cc2)c(F)c1.O=C(O)/C=C/C(=O)O [Ro 48-8071 fumarate] | 105
